Reference: patent publication US6358993B1, “Pharmaceutically active nitrogen ring compounds and methods of use thereof” (CeNes Pharmaceuticals, Inc., priority 1996, dated 2002)
Structures can show the parent of a compound that is named as a salt.

How the values were obtained:
[1] = test system: DBA/2 mice; test: In vivo anticonvulsant activity in the DBA/2 mouse model (mouse audiogenic assay); conditions: 30 minutes before auditory stimulus, inhibition relative to vehicle
Procedure: As discussed above, preferred compounds of the invention in a standard anticonvulsant in vivo audiogenic test, such as the audiogenic mouse assay of Example 48 which follows, where DBA/2 mice about 20-23 days old are injected intraperitoneally with a test compound 30 minutes prior to being placed in a bell jar with exposure to auditory stimulus of 12 KHz sine wave at 110-120 db. References herein in vivo “audiogenic assay” are intended to refer to that protocol. […] As discussed above, activity in the audiogenic assay has been recognized as indicative that a test compound has neuroprotective properties. See, e.g., M. Tricklebank et al., European Journal of Pharmacology, supra; T. Seyfried, Federation Proceedings, supra.
In vivo Anticonvulsant Activity in the DBA/2 Mouse Model (Mouse Audiogenic Assay)
Compounds were tested for their effectiveness in preventing seizures in DBA/2 mice which have a unique sensitivity to auditory stimulation. Exposure to loud high-frequency sounds can trigger seizure activity in these animals. This sensitivity develops from postnatal day 12 and peaks around day 21 and slowly diminishes as the animals mature. The unusual response to auditory stimulation in this strain of mouse is believed to be due to a combination of early myelination (causing an unusually low excitatory threshold) and delayed development of inhibitory mechanisms.
Mice were injected intraperitoneally with the compound specified in Table I below or with vehicle control, 30 minutes prior to being placed in a bell jar and turning on the auditory stimulus (12 KHz sine wave at 110-120 db). Administered doses are specified in Table I as milligram of compound per kilogram bodyweight of mouse. The auditory stimulus was left on for 60 seconds and mice reactions were timed and recorded. “FB” refers to free base.

[2] = test system: in vivo models of stroke; conditions: cited from earlier work
[3] = in vivo; cited from earlier work
[4] = test system: mouse audiogenic tests; conditions: in vivo; cited from earlier work

Row | Compound | Audiogenic Response % Inhib. ([1]; dose 10 mg/kg i.p.) | Audiogenic Response % Inhib. ([1]; dose 20 mg/kg i.p.) | further results
1 | N=C(Nc1cc(Br)ccc1Br)N1CCCc2ccc(C(F)(F)F)cc21 (as salt: hydrochloride) [Example 35, N-(2,5-dibromophenyl)-(7-trifluoromethyl-1,2,3,4-tetrahydroquinolinyl)carboximidamide Hydrochloride] |  |  | melting point: 201 to 202 °C
2 | N=C(N)N1Cc2ccccc2CCc2ccccc21 (as salt: hydrochloride) [Example 41, 5,6,11,12-tetrahydrodibenz[b,f]azocin-carboximidanmide.hydrochloride] |  |  | melting point: 238 to 240 °C
3 | N=C(Nc1cccc2ccccc12)N1CCc2ccccc21 [Example 2, N-(1-Naphthyl)-1-indolinylcarboximidamide] | 100% |  | Audiogenic Response % Inhib. ([1]; dose 2 mg/kg i.p.): 82%
4 | CS(=O)(=O)O.N=C(Nc1ccc(OCc2ccccc2)cc1)N1CCc2ccccc21 [Example 4, N-(4-Benzyloxyphenyl)-1-indolinylcarboximidamide.mesylate] |  | 32% | 
5 | COc1ccc(NC(=N)N2CCc3ccccc32)c2ccccc12.CS(=O)(=O)O [Example 5, N-(4-Methoxynaphthyl)-1-indolinylcarboxidamide.mesylate] | 68% | 87% | Audiogenic Response % Inhib. ([1]; dose 5 mg/kg i.p.): 50%
6 | N=C(Nc1ccc(Cl)c(Cl)c1)N1CCc2ccccc21 [Example 6, N-(3,4-Dichlorophenyl)-1-indolinylcarboximidamide] | 41% | 83% | 
7 | CCc1cccc2c1N(C(=N)Nc1cccc3ccccc13)CC2 [Example 9, N-(1-Naphthyl)-1-(7-ethyl)-indolinylcarboximidaide] |  | 28% | 
8 | Cl.N=C(Nc1cccc(Cl)c1Cl)N1CCc2ccccc21 [Example 11, N-(2,3-dichiorophenyl)-1-indolinylcarboximidamide.HCl] | 55% |  | 
9 | Cc1cccc(NC(=N)N2CCc3ccccc32)c1C.Cl [Example 12, N-(2,3-dimethylphenyl)-1-indolinylcarboximidamide.HCl] | 88% |  | Audiogenic Response % Inhib. ([1]; dose 2 mg/kg i.p.): 23%; Audiogenic Response % Inhib. ([1]; dose 5 mg/kg i.p.): 67%
10 | Cl.N=C(Nc1cccc2c1CCCC2)N1CCc2ccccc21 [Example 13, N-(5,6,7,8-tetrahydro-1-naphthyl)-1-indolinylcarboximidamide.HCl] | 48% | 80% | 
11 | CCc1ccc(Cl)c(NC(=N)N2CCCc3ccc(C(F)(F)F)cc32)c1.Cl [Example 19, N-(2-chloro-5-ethylphenyl)-[(7-trifluoromethyl)-1,2,3,4-tetrahydroquinolinyl]carboximidamiide.HCl] | 44% | 91% | 
12 | Cl.N=C(Nc1cccc2ccccc12)N1CCCc2ccc(C(F)(F)F)cc21 [Example 20] |  |  | Audiogenic Response % Inhib. ([1]; dose 4 mg/kg i.p.): 13%
13 | Cl.N=C(Nc1cccc2ccccc12)N1CCCc2ccccc21 [Example 21, N-(1-naphthyl)-(1,2,3,4-tetrahydroquinolinyl)carboximidamide.HCl] |  |  | Audiogenic Response % Inhib. ([1]; dose 1 mg/kg i.p.): 13%; Audiogenic Response % Inhib. ([1]; dose 2 mg/kg i.p.): 62%; Audiogenic Response % Inhib. ([1]; dose 4 mg/kg i.p.): 88%
14 | Cl.N=C(Nc1cccc(-c2ccccc2)c1)N1Cc2cccc3cccc1c23 [Example 22, N-(3-biphenyl)-1-(benz[cd]indolinyl)carboximdamide.HCl] | 23% |  | 
15 | Cc1ccccc1NC(=N)N1Cc2cccc3cccc1c23.Cl [Example 23, N-(2-tolyl)-1-(benz[cd]indolinyl)carboximidamnide.HCl] |  |  | Audiogenic Response % Inhib. ([1]; dose 1 mg/kg i.p.): 53%; Audiogenic Response % Inhib. ([1]; dose 2 mg/kg i.p.): 61%; Audiogenic Response % Inhib. ([1]; dose 4 mg/kg i.p.): 95%
16 | Cc1ccc(C)c(NC(=N)N2Cc3cccc4cccc2c34)c1.Cl [Example 25, N-(2,5-dimethylphenyl)-1-benz[cd]indolinylcarboximidamide.HCl] | 76% |  | Audiogenic Response % Inhib. ([1]; dose 5 mg/kg i.p.): 59%
17 | Cc1ccc2c(c1)CCCN2C(=N)Nc1cccc2ccccc12.Cl [Example 33, N-(1-naphthyl)-(6-methyl-1,2,3,4-tetrahydroquinolinyl)carboximidamide Hydrochloride] |  |  | Audiogenic Response % Inhib. ([1]; dose 4 mg/kg i.p.): 62%
18 | C[C@]12N[C@H](Cc3ccccc31)c1ccccc12 [MK-801] |  |  | results in in vivo models of stroke [2]: good results; toxicity [3]: has shown toxicity; activity in mouse audiogenic tests [4]: good activity
19 | N=C(Nc1cccc2ccccc12)N1CCc2ccccc2C1 [N-(1-naphthyl)-1,2,3,4-tetrahydroisoquinolinyl)carboximidamide] |  | 41% | 
20 | N-(2-biphenyl)-1-indolinylcarboximidamide.HCl [Example 14] |  | 56% | 
21 | N-(5-Acenaphthyl)-1-(5-bromo)-indolinylcarboximidamide [Example 8] |  | 11% | 
22 | N-(5-Acenaphthyl)-1-(5-methoxy)-1-indolinylcarboximidamide.HCl [Example 7] | 21% |  | 
